We go through five compounds from patent US12559529B2, “NPY2 receptor agonists” (Boehringer Ingelheim International GmbH, priority 2019, dated 2026).

*1 amine or outer side, *2 acyl side, *3 side chain or, on linkers, in order; H or OH if unused. Where a SMILES comes first, the peptide text is derived from it. Side-chain parts run from the residue outwards. The star is where a group is joined. C18 diacid = O=C(O)CCCCCCCCCCCCCCCCC(=O)*; γGlu = O=C(O)[C@H](CCC(=O)[*:2])N[*:1]; Isovaleryl = CC(C)CC(=O)*; AEEA = NCCOCCOCC(=O)O

In one assay the test system is normal NMRI mice. Briefly: Effect on acute food intake in normal NMRI mice. The following applies: male NMRI mice, 10 nmol/kg subcutaneously once. In kind it is in vivo. A digest of the protocol: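 A single 10 nmol/kg s.c. peptide dose was given 1 h before lights-off to male NMRI mice fasted from 6 h before the night phase (n=7-8). Intake was recorded continuously by microchip-identified HM-2 feeding channels. Values are normalized to vehicle controls (50 mM phosphate buffer pH7 with 5% Mannitol).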

Assay [1] has as its target T1, Human Neuropeptide Y2 Receptor (Homo sapiens, UniProt P49146).
T1 construct: purchased CHEMICON HTS066M
T1 sequence (P49146 1-381): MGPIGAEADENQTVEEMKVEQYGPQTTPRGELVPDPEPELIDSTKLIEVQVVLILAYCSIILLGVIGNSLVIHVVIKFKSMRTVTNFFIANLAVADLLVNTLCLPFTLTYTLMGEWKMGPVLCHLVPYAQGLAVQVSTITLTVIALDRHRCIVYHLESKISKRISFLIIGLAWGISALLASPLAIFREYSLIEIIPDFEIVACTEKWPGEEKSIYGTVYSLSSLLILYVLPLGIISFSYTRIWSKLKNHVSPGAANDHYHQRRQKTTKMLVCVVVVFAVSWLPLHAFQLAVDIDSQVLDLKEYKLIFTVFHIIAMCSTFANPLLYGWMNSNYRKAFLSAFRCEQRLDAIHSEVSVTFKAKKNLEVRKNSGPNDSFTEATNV
The assay can be described thus: Radioligand binding competition assay (RLB). To be noted: Table 3; human 125I-PYY (1-36) 0.02 nM, Y2 receptor membranes; read-out: Ki. A digest of the protocol: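 Peptide dilutions made in pH 7.4 HEPES assay buffer with 0.2% ovalbumin; human Y2 receptor membranes added at 0.5 μg protein/well; plates shaken 2 h at room temperature; reaction stopped by vacuum filtration onto PEI-treated GF/C filters with ice-cold high-salt washes; radioactivity counted by scintillation.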

Take `CC[C@H](C)[C@H](NC(=O)[C@H](CCC(=O)O)NC(=O)[C@H](CCC(=O)O)NC(=O)[C@H](CCC(=O)O)NC(=O)[C@H](CO)NC(=O)[C@H](C)NC(=O)[C@H](CC(=O)O)NC(=O)[C@H](CCC(=O)O)NC(=O)[C@H](CCC(=O)O)NC(=O)[C@@H]1CCCN1C(=O)[C@H](CCCCNC(=O)COCCOCCNC(=O)COCCOCCNC(=O)CC[C@H](NC(=O)CCCCCCCCCCCCCCCCC(=O)O)C(=O)O)NC(=O)[C@H](CCC(=O)O)NC(=O)[C@@H]1CCCN1C(=O)[C@H](C)NC(=O)CC(C)C)C(=O)N[C@@H](CCC(N)=O)C(=O)N[C@@H](CCCNC(=N)N)C(=O)N[C@@H](Cc1ccc(O)cc1)C(=O)N[C@@H](Cc1ccc(O)cc1)C(=O)N[C@H](C(=O)N[C@@H](CO)C(=O)N[C@@H](CC(C)C)C(=O)N[C@@H](CCCNC(=N)N)C(=O)N[C@@H](Cc1c[nH]cn1)C(=O)N[C@@H](Cc1ccc(O)cc1)C(=O)N[C@@H](Cc1ccc(O)cc1)C(=O)N[C@@H](CC(N)=O)C(=O)N[C@@H](Cc1c[nH]c2ccccc12)C(=O)N[C@@H](CC(C)C)C(=O)N[C@H](C(=O)N[C@@H](CCCNC(=N)N)C(=O)N[C@@H](CCC(N)=O)C(=O)N[C@@H](CCCNC(=N)N)C(=O)N[C@@H](Cc1ccc(O)cc1)C(N)=O)[C@@H](C)O)C(C)C` [Compound 193, N{alpha-4}-(3-methylbutanoyl)-N{epsilon-7}-[2-(2-{2-[2-(2-{2-[(4S)-4-carboxy-4-(17-carboxyheptadecanamido)butanamido]ethoxy}ethoxy)acetamido]ethoxy}ethoxy)acetamido]-[4A,7K,9E,14E,17I,18Q,22V,28Y,30W,31L]hPYY (4-36)]: in the assay on normal NMRI mice, the “Acute Food Intake 24 h [% vehicle]” value is on record as 57 % vehicle. Besides, the Ki in assay [1] came to 3.81 nM.
The corresponding values for `CC(C)CC(=O)N[C@@H](C)C(=O)N1CCC[C@H]1C(=O)N[C@@H](CCC(=O)O)C(=O)N[C@@H](CCCCNC(=O)COCCOCCNC(=O)COCCOCCNC(=O)CC[C@H](NC(=O)CCCCCCCCCCCCCCCCC(=O)O)C(=O)O)C(=O)N1CCC[C@H]1C(=O)N[C@@H](CCC(=O)O)C(=O)N[C@@H](CCC(=O)O)C(=O)N[C@@H](CC(=O)O)C(=O)N[C@@H](C)C(=O)N[C@@H](CO)C(=O)N1CCC[C@H]1C(=O)N[C@@H](CCC(=O)O)C(=O)N[C@@H](C)C(=O)N[C@@H](CC(C)C)C(=O)N[C@@H](CCC(N)=O)C(=O)N[C@@H](CCCNC(=N)N)C(=O)N[C@@H](Cc1ccc(O)cc1)C(=O)N[C@@H](Cc1ccc(O)cc1)C(=O)N[C@H](C(=O)N[C@@H](CCC(=O)O)C(=O)N[C@@H](CC(C)C)C(=O)N[C@@H](CCCNC(=N)N)C(=O)N[C@@H](Cc1c[nH]cn1)C(=O)N[C@@H](Cc1ccc(O)cc1)C(=O)N[C@@H](Cc1ccc(O)cc1)C(=O)N[C@@H](CC(N)=O)C(=O)N[C@@H](Cc1c[nH]c2ccccc12)C(=O)N[C@@H](CC(C)C)C(=O)N[C@H](C(=O)N[C@@H](CCCNC(=N)N)C(=O)N[C@@H](CCC(N)=O)C(=O)N[C@@H](CCCNC(=N)N)C(=O)N[C@@H](Cc1ccc(O)cc1)C(N)=O)[C@@H](C)O)C(C)C` [Compound 195, N{alpha-4}-(3-methylbutanoyl)-N{epsilon-7}-[2-(2-{2-[2-(2-{2-[(4S)-4-carboxy-4-(17-carboxyheptadecanamido)butanamido]ethoxy}ethoxy)acetamido]ethoxy}ethoxy)acetamido]-[4A,7K,9E,16A,18Q,22V,23E,28Y,30W,31L]hPYY (4-36)] are 50 % vehicle and 0.75 nM.
The corresponding values for `CC(C)CC(=O)N[C@@H](C)C(=O)N1CCC[C@H]1C(=O)N[C@@H](CCC(=O)O)C(=O)N[C@@H](CCCCNC(=O)COCCOCCNC(=O)COCCOCCNC(=O)CC[C@H](NC(=O)CCCCCCCCCCCCCCCCC(=O)O)C(=O)O)C(=O)N1CCC[C@H]1C(=O)N[C@@H](CCC(=O)O)C(=O)N[C@@H](CCC(=O)O)C(=O)N[C@@H](CC(=O)O)C(=O)N[C@@H](C)C(=O)N[C@@H](C)C(=O)N1CCC[C@H]1C(=O)N[C@@H](CCC(=O)O)C(=O)N[C@@H](CCC(=O)O)C(=O)N[C@@H](CC(C)C)C(=O)N[C@@H](CCC(N)=O)C(=O)N[C@@H](CCCCN)C(=O)N[C@@H](Cc1ccc(O)cc1)C(=O)N[C@@H](Cc1ccc(O)cc1)C(=O)N[C@H](C(=O)N[C@@H](CO)C(=O)N[C@@H](CC(C)C)C(=O)N[C@@H](CCCNC(=N)N)C(=O)N[C@@H](Cc1c[nH]cn1)C(=O)N[C@@H](Cc1ccc(O)cc1)C(=O)N[C@@H](Cc1ccc(O)cc1)C(=O)N[C@@H](CC(N)=O)C(=O)N[C@@H](Cc1c[nH]c2ccccc12)C(=O)N[C@@H](CC(C)C)C(=O)N[C@H](C(=O)N[C@@H](CCCNC(=N)N)C(=O)N[C@@H](CCC(N)=O)C(=O)N[C@@H](CCCNC(=N)N)C(=O)N[C@@H](Cc1ccc(O)cc1)C(N)=O)[C@@H](C)O)C(C)C` [Compound 202, N{alpha-4}-(3-methylbutanoyl)-N{epsilon-7}-[2-(2-{2-[2-(2-{2-[(4S)-4-carboxy-4-(17-carboxyheptadecanamido)butanamido]ethoxy}ethoxy)acetamido]ethoxy}ethoxy)acetamido]-[4A,7K,9E,13A,18Q,19K,22V,28Y,30W,31L]hPYY (4-36)] are 48 % vehicle and 0.6 nM.
The matching figures for `CC(C)CC(=O)N[C@@H](C)C(=O)N1CCC[C@H]1C(=O)N[C@@H](CCC(=O)O)C(=O)N[C@@H](CCCCNC(=O)COCCOCCNC(=O)COCCOCCNC(=O)CC[C@H](NC(=O)CCCCCCCCCCCCCCCCC(=O)O)C(=O)O)C(=O)N1CCC[C@H]1C(=O)N[C@@H](CCC(=O)O)C(=O)N[C@@H](CCC(=O)O)C(=O)N[C@@H](CCC(=O)O)C(=O)N[C@@H](C)C(=O)N[C@@H](CO)C(=O)N1CCC[C@H]1C(=O)N[C@@H](CCC(=O)O)C(=O)N[C@@H](CCC(=O)O)C(=O)N[C@@H](CC(C)C)C(=O)N[C@@H](CCC(N)=O)C(=O)N[C@@H](CCCCN)C(=O)N[C@@H](Cc1ccc(O)cc1)C(=O)N[C@@H](Cc1ccc(O)cc1)C(=O)N[C@H](C(=O)N[C@@H](CO)C(=O)N[C@@H](CC(C)C)C(=O)N[C@@H](CCCNC(=N)N)C(=O)N[C@@H](Cc1c[nH]cn1)C(=O)N[C@@H](Cc1ccc(O)cc1)C(=O)N[C@@H](Cc1ccc(O)cc1)C(=O)N[C@@H](CC(N)=O)C(=O)N[C@@H](Cc1c[nH]c2ccccc12)C(=O)N[C@@H](CC(C)C)C(=O)N[C@H](C(=O)N[C@@H](CCCNC(=N)N)C(=O)N[C@@H](CCC(N)=O)C(=O)N[C@@H](CCCNC(=N)N)C(=O)N[C@@H](Cc1ccc(O)cc1)C(N)=O)[C@@H](C)O)C(C)C` [Compound 205, N{alpha-4}-(3-methylbutanoyl)-N{epsilon-7}-[2-(2-{2-[2-(2-{2-[(4S)-4-carboxy-4-(17-carboxyheptadecanamido)butanamido]ethoxy}ethoxy)acetamido]ethoxy}ethoxy)acetamido]-[4A,7K,9E,11E,18Q,19K,22V,28Y,30W,31L]hPYY (4-36)] (Isovaleryl-APEK([AEEA-AEEA-γGlu-C18 diacid])PEEEASPEELQKYYVSLRHYYNWLTRQRY-NH2): 65 % vehicle and 1.9 nM.
`CC(C)CC(=O)N[C@@H](C)C(=O)N1CCC[C@H]1C(=O)N[C@@H](CCC(=O)O)C(=O)N[C@@H](CCCCNC(=O)COCCOCCNC(=O)COCCOCCNC(=O)CC[C@H](NC(=O)CCCCCCCCCCCCCCCCC(=O)O)C(=O)O)C(=O)N1CCC[C@H]1C(=O)N[C@@H](CCC(=O)O)C(=O)N[C@@H](CCC(=O)O)C(=O)N[C@@H](CC(=O)O)C(=O)N[C@@H](C)C(=O)N[C@@H](CO)C(=O)N[C@@H](CCC(=O)O)C(=O)N[C@@H](CCC(=O)O)C(=O)N[C@@H](CCC(=O)O)C(=O)N[C@H](C(=O)N[C@@H](CCC(N)=O)C(=O)N[C@@H](CCCNC(=N)N)C(=O)N[C@@H](Cc1ccc(O)cc1)C(=O)N[C@@H](Cc1ccc(O)cc1)C(=O)N[C@H](C(=O)N[C@@H](CO)C(=O)N[C@@H](CC(C)C)C(=O)N[C@@H](CCCNC(=N)N)C(=O)N[C@@H](Cc1c[nH]cn1)C(=O)N[C@@H](Cc1ccc(O)cc1)C(=O)N[C@@H](Cc1ccc(O)cc1)C(=O)N[C@@H](CC(N)=O)C(=O)N[C@@H](Cc1c[nH]c2ccccc12)C(=O)N[C@@H](CC(C)C)C(=O)N[C@H](C(=O)N[C@@H](CCCNC(=N)N)C(=O)N[C@@H](CCC(N)=O)C(=O)N[C@@H](CCCNC(=N)N)C(=O)N[C@@H](Cc1ccc(O)cc1)C(N)=O)[C@@H](C)O)C(C)C)[C@@H](C)O` [Compound 208, N{alpha-4}-(3-methylbutanoyl)-N{epsilon-7}-[2-(2-{2-[2-(2-{2-[(4S)-4-carboxy-4-(17-carboxyheptadecanamido)butanamido]ethoxy}ethoxy)acetamido]ethoxy}ethoxy)acetamido]-[4A,7K,9E,14E,17T,18Q,22V,28Y,30W,31L]hPYY (4-36)]: the “Acute Food Intake 24 h [% vehicle]” value with normal NMRI mice amounted to 61 % vehicle. In addition, in assay [1], the Ki was 3.8 nM.
